Test results as given in the NIST ThermoML archive (doi:10.1016/j.fluid.2014.09.014).

Test: refractive index (other wavelength) (dimensionless); xn = mol fraction of the nth substance listed
Details: 303.15 K, 101 kPa, Liquid, Standard Abbe refractometry

CC(C)OC(C)C [diisopropyl ether] + CO
refractive index
Details	Wavelength=40.47 nm	Wavelength=435.8 nm	Wavelength=486.1 nm
x2 = 0	–	1.37022	1.36687
x2 = 0.0423	–	1.37019	–
x2 = 0.0424	–	1.37022	1.36682
x2 = 0.082	–	1.37014	1.36677
x2 = 0.0822	–	1.37022	1.36685
x2 = 0.1171	–	1.37006	1.36669
x2 = 0.1271	–	1.37006	–
x2 = 0.1827	–	1.36973	–
x2 = 0.2162	–	1.36956	–
x2 = 0.251	–	1.36955	–
x2 = 0.3298	–	1.36893	–
x2 = 0.3577	–	1.36912	–
x2 = 0.4497	–	1.36661	–
x2 = 0.4525	–	1.36711	–
x2 = 0.522	1.3677	1.36484	–
x2 = 0.5543	1.36716	1.36432	–
x2 = 0.609	1.36428	1.36149	–
x2 = 0.6529	1.36277	1.35999	–
x2 = 0.7504	1.35877	1.35604	–
x2 = 0.804	1.35438	1.35174	–
x2 = 0.807	1.35432	1.35168	–
x2 = 0.8727	1.34909	1.34651	–
x2 = 0.9233	1.34198	1.3395	–
x2 = 0.9253	1.34381	1.34132	–
x2 = 0.9527	1.34063	1.33817	–
x2 = 0.9773	1.33704	1.33466	–
x2 = 0.989	1.33587	1.33351	–
x2 = 0.9964	1.33483	1.33219	–
